Test results reported in US20040023945A1, “CYCLIC AMP-SPECIFIC PHOSPHODIESTERASE INHIBITORS” (ICOS Corporation, priority 1999, published 2004).
pEC50: −log10 of the molar value.

Tested on: human peripheral blood lymphocytes
Assay: Lipopolysaccharide-stimulated TNFα release from human peripheral blood lymphocytes
Assay type: cell-based
Conditions: Homo sapiens, Lymphocyte, LPS-stimulated TNFα release from human PBL; read-out: PBL/TNFα EC50
Description: The compounds of structural formula (II) also were tested for an ability to reduce TNFα secretion in human peripheral blood lymphocytes. The ability to reduce TNFα secretion is related to the EC50 values (i.e., the effective concentration of the compound capable of inhibiting 50% of the total TNFα).
To assess the ability of a compound to reduce TNFα secretion in human peripheral blood lymphocytes (PBL), the following tests were performed.
Heparinized blood (approximately 30 mL) drawn from human volunteers was mixed 1:1 with Dulbecco's modified phosphate-buffered saline. This mixture was mixed 1:1 with HISTOPAQUE® and centrifuged at 1,500 rpm at room temperature without braking in the swinging bucket of a Beckman model TJ6 centrifuge. Erythrocytes were centrifuged to the bottom of the tubes, and serum remained at the surface of the tubes. A layer containing lymphocytes sedimented between the serum and HISTOPAQUE® layers, and was removed by aspiration to a fresh tube. The cells were quantified and adjusted to 3×10^6 cells/mL and a 100 μL aliquot is placed into the wells of a 96 well plate. Test compounds and RPMI media (Gibco/BRL Life Sciences) are added to each of the wells 15 minutes prior to addition of bacterial LPS ([…]). The mixture was allowed to incubate for 20 hours at 37° C. in a humidified chamber. The cells then were separated by centrifuging at 800 rpm for 5 minutes at room temperature. An aliquot of 180 μL of supernatant was transferred to a new plate for determination of TNFα concentration. TNFα protein in the cell supernatant fluids was measured using a commercially available enzyme-linked immunosorbent assay (ELISA) (CYTOSCREEN® Immunoassay Kit from Biosource International).
The cell-based assay provided the following results for various pyrrolidine compounds of the present invention. The EC50 values (i.e., effective concentration of the compound capable of inhibiting 50% of the total TNFα) illustrate the ability of the present compounds to inhibit LPS-stimulated TNFα release from human PBL.

| Structure (SMILES) | pEC50 |
| --- | --- |
| COC(=O)N1C[C@@H](c2ccc(OC)c(OC(C)CCc3ccccc3)c2)[C@](C)(C(C)O)C1 (relative stereo) [Example 6, trans-3-(1-Hydroxyethyl)-4-(4-methoxy-3-(1-methyl-3-phenylpropoxy)phenyl]-3-methylpyrrolidine-1-carboxylic acid methyl ester] | 5.44 |
| COc1ccc([C@@H]2CN(C(=O)C(N)=O)C[C@@]2(C)[C@@H](C)O)cc1OCC#Cc1ccccc1 [Example 75, 2-{(3S,4S)-3-((R)-1-Hydroxyethyl)-4-[4-methoxy-3-(3-phenylprop-2-ynyloxy)-phenyl]-3-methylpyrrolidin-1-yl}-2-oxo-acetamide] | 6.92 |
| COc1ccc([C@@H]2CN(C(=O)[C@H](OC(C)=O)C3CCCCC3)C[C@@]2(C)[C@@H](C)O)cc1OC1CCCC1 [Example 90, 1-[3-((1R)-1-Hydroxyethyl)(3S,4S)-4-(3-cyclopentyloxy-4-methoxyphenyl)-3-methylpyrrolidinyl](2R)-2-cyclohexyl-2-acetoxyethan-1-one] | 7.21 |
| COc1ccc([C@@H]2CN(C(=O)C(N)=O)C[C@@]2(C)[C@@H](C)O)cc1OCCCOc1ccc(F)cc1 [Example 77, 2-[(3S,4S)-4-{3-[3-(4-Fluorophenoxy)propoxy]-4-methoxyphenyl}-3-((R)-1-hydroxyethyl)-3-methylpyrrolidin-1-yl]-2-oxo-acetamide] | 6.24 |
| COc1ccc([C@@H]2CN(C(=O)C(N)=O)C[C@@]2(C)[C@@H](C)O)cc1OC1Cc2ccccc2C1 [Example 79, 2-{(3S,4S)-3-((R)-1-Hydroxyethyl)-4-[3-(indan-2-yloxy)-4-methoxyphenyl]-3-methylpyrrolidin-1-yl}-2-oxo-acetamide] | 5.63 |
| CCCC[C@@H](NC(=O)OCc1ccccc1)C(=O)N1C[C@@H](c2ccc(OC)c(OC3CCCC3)c2)[C@](C)([C@@H](C)O)C1 [Example 84, N-{(1R)-2-[3-((1R)-1-Hydroxyethyl)(3S,4S)-4-(3-cyclopentyloxy-4-methoxyphenyl)-3-methylpyrrolidinyl]-1-butyl-2-oxoethyl}(phenylmethoxy)carboxamide] | 7.40 |
| COc1ccc([C@@H]2CN(c3ccccn3)C[C@@]2(C)[C@@H](C)O)cc1OC1CCCC1 [Example 34, (1R)-1-[(3S,4S)-4-(3-Cyclopentyloxy-4-methoxyphenyl)-3-methyl-1-(2-pyridyl)pyrrolidin-3-yl]ethan-1-ol] | 6.60 |
| COc1ccc([C@@H]2CN(C(=O)C(N)=O)C[C@@]2(C)[C@@H](C)O)cc1OCC#Cc1ccc(C(F)(F)F)cc1 [Example 76, 2-((3S,4S)-3-((R)-1-Hydroxyethyl)-4-{4-methoxy-3-(3-(4-trifluoromethyl-phenyl)prop-2-ynyloxy]-phenyl}-3-methylpyrrolidin-1-yl)-2-oxo-acetamide] | 6.76 |
| COC(=O)N1C[C@@H](c2ccc(OC)c(OC3CC4CCC3C4)c2)[C@](C)(C(C)O)C1 (stereo partly drawn) [Example 5, trans 4-[3-Exo-(Bicyclo[2.2.1]hept-2-yloxy)-4-methoxyphenyl]-3-(1-hydroxyethyl)-3-methylpyrrolidine-1-carboxylic acid methyl ester] | 5.81 |
| COc1ccc([C@@H]2CN(C(=O)CO)C[C@@]2(C)C(C)(C)O)cc1OCC1CC1 [Example 2, 1-[4-(S)-(3-Cyclopropylmethoxy-4-methoxyphenyl)-3-(1-hydroxy-1-methylethyl)-3-(S)-methylpyrrolidin-1-yl]-2-hydroxyethanone] | 5.72 |
| COC(=O)N1C[C@@H](c2ccc(OC)c(OC3CCCC3)c2)[C@](C)(C(C)(C)O)C1 (racemic) [Example 1, (±)-4-(3-Cyclopentyloxy-4-methoxyphenyl)-3-(1-hydroxy-1-methylethyl)-3-methylpyrrolidine-1-carboxylic acid methyl ester] | 5.92 |
| COc1ccc([C@@H]2CN(C(=O)C(N)=O)C[C@@]2(C)[C@@H](C)O)cc1OCC1CC1 [Example 78, 2-[(3S,4S)-4-(3-Cyclopropylmethoxy-4-methoxyphenyl)-3-((R)-1-hydroxyethyl)-3-methylpyrrolidin-1-yl]-2-oxo-acetamide] | 5.89 |
| COC(=O)N1C[C@@H](c2ccc(OC)c(OC3Cc4ccccc4C3)c2)[C@](C)(C(C)O)C1 (mixture of isomers) [Example 4, trans-(±)-3-(1-Hydroxyethyl)-4-[3-(indan-2-yloxy)-4-methoxyphenyl]-3-methylpyrrolidine-1-carboxylic acid methyl ester] | 5.44 |

Second part, the compound after the results:

| pEC50 | Structure (SMILES) |
| --- | --- |
| 6.57 | COc1ccc([C@@H]2CN(C(=O)C(O)c3ccccc3)CC2(C)[C@@H](C)O)cc1OC1CCCC1 (stereo in doubt) [Example 63, 1-((3R)-3-((1R)-1-Hydroxyethyl)-4-(3-cyclopentyloxy-4-methoxyphenyl)-3-methylpyrrolidinyl]-2-hydroxy-2-phenylethan-1-one] |
| 7.36 | COc1ccc([C@@H]2CN(C(=O)[C@H](O)C3CCCCC3)C[C@@]2(C)[C@@H](C)O)cc1OC1CCCC1 [Example 91, (2R)-1-[3-((1R)-1-Hydroxyethyl)(3S,4S)-4-(3-cyclopentyloxy-4-methoxyphenyl)-3-methylpyrrolidinyl]-2-cyclohexyl-2-hydroxyethan-1-one] |
| 8.11 | CCCC[C@H](N)C(=O)N1C[C@@H](c2ccc(OC)c(OC3CCCC3)c2)[C@](C)([C@@H](C)O)C1 [Example 93, 1-[3-((1R)-1-Hydroxyethyl)(3S,4S)-4-(3-cyclopentyloxy-4-methoxyphenyl)-3-methylpyrrolidinyl](2S)-2-aminohexan-1-one] |
| 6.25 | COc1ccc([C@@H]2CN(C(=O)C(N)=O)C[C@@]2(C)[C@@H](C)O)cc1OC1CCCC1 [Example 74, 2-[3-((1R)-1-Hydroxyethyl)(3S,4S)-4-(3-cyclopentyloxy-4-methoxyphenyl)-3-methylpyrrolidinyl]-2-oxoacetamide] |
| 6.31 | COc1ccc([C@@H]2CN(C(=O)C(=O)NC3CCCC3)C[C@@]2(C)[C@@H](C)O)cc1OC1CCCC1 [Example 82, 2-[3-((1R)-1-Hydroxyethyl)(3S,4S)-4-(3-cyclopentyloxy-4-methoxyphenyl)-3-methylpyrrolidinyl]-N-cyclopentyl-2-oxoacetamide] |
| 6.26 | COc1ccc([C@@H]2CN(C(=O)C(C)(C)OC(C)=O)C[C@@]2(C)[C@@H](C)O)cc1OC1CCCC1 [Example 70, 2-(3-((1R)-1-Hydroxyethyl)(3S,4S)-4-(3-cyclopentyloxy-4-methoxyphenyl) -3-methylpyrrolidinyl]-1,1-dimethyl-2-oxoethyl acetate] |
| 6.74 | COc1ccc([C@@H]2CN(C(=O)CO)C[C@@]2(C)[C@@H](C)O)cc1OC1CCCC1 [Example 65, 1-(3-((1R)-1-Hydroxyethyl)(3S,4S)-4-(3-cyclopentyloxy-4-methoxyphenyl)-3-methylpyrrolidinyl]-2-hydroxyethan-1-one] |
| 6.20 | COc1ccc([C@@H]2CN(C(=O)[C@@H](OC(C)=O)C3CCCCC3)C[C@@]2(C)[C@@H](C)O)cc1OC1CCCC1 [Example 88, 2-[3-((1R)1-Hydroxyethyl)(3S,4S)-4-(3-cyclopentyloxy-4-methoxyphenyl)-3-methylpyrrolidinyl](1S)-1-cyclohexyl-2-oxoethyl acetate] |
| 6.03 | COc1ccc([C@@H]2CN(C(=O)[C@H](N)C(C)C)C[C@@]2(C)[C@@H](C)O)cc1OC1CCCC1 [Example 87, (2R)-1-[3-((1R)-1-Hydroxyethyl)(3S,4S)-4-(3-cyclopentyloxy-4-methoxyphenyl)-3-methylpyrrolidinyl]-2-amino-3-methylbutan-1-one] |
| 6.07 | COc1ccc([C@@H]2CN(C(=O)[C@@H](O)C3CCCCC3)C[C@@]2(C)[C@@H](C)O)cc1OC1CCCC1 [Example 89, 1-[3-((1R)-1-Hydroxyethyl)(3S,4S)-4-(3-cyclopentyloxy-4-methoxyphenyl)-3-methylpyrrolidinyl](2S)-2-cyclohexyl-2-hydroxyethan-1-one] |
| 6.20 | COc1ccc([C@@H]2CN(C(=O)C(=O)N3CCCCC3)C[C@@]2(C)[C@@H](C)O)cc1OC1CCCC1 [Example 81, 1-[3-((1R)-1-Hydroxyethyl)(3S,4S)-4-(3-cyclopentyloxy-4-methoxyphenyl)-3-methylpyrrolidinyl]-2-piperidylethane-1,2-dione] |
| 7.69 | COc1ccc([C@@H]2CN(c3cccnc3)C[C@@]2(C)[C@@H](C)O)cc1OC1CCCC1 [Example 35, (1R)-1-[(3S,4S)-4-(3-Cyclopentyloxy-4-methoxyphenyl)-3-methyl-1-(3-pyridyl)pyrrolidin-3-yl]ethan-1-ol] |
| 7.29 | COc1ccc([C@@H]2CN(C(=O)C(=O)NCc3ccccc3)C[C@@]2(C)[C@@H](C)O)cc1OC1CCCC1 [Example 83, 2-[3-((1R)-1-Hydroxyethyl)(3S,4S)-4-(3-cyclopentyloxy-4-methoxyphenyl)-3-methylpyrrolidinyl]-2-oxo-N-benzylacetamide] |
